The record followed here is US5516887A, “Luteinizing hormone releasing hormone antagonist peptides” (Deghenghi; Romano, priority 1994, dated 1996).

Non-standard residues stand in square brackets, D forms with d. *: point of attachment. dPhe(4-Cl) = N[C@H](Cc1ccc(Cl)cc1)C(=O)O; d2Nal = N[C@H](Cc1ccc2ccccc2c1)C(=O)O; d3Pal = N[C@H](Cc1cccnc1)C(=O)O; Carbamoyl = NC(=O)*; iPr = CC(C)*

In one data set the test system is plasma testosterone. In words: Suppression of plasma testosterone in rats after i.m. injection. The format is in vivo. To be noted: 300 μg/kg i.m. An excerpt: The effect of an LHRH antagonist peptide of Example 1 of the present invention was compared to the effect of "Antide", cf. A. Ljungqvist et al., Biochem. Biophys. Res. Comm., 148, 849-858 (1987)., an LHRH antagonist of the prior art. Both LHRH antagonists were intermuscularly injected into 6 rats at a dosage of 300 mcg/kg.

The format of data set [1] is physicochemical. An excerpt: An aqueous solution of the peptide of Example 1 was mixed with an aqueous solution of sodium pamoate.
The test system of a further data set is rats. The experiment in a line: Test for anaphylactoid properties in rats. The format is in vivo. To be noted: six rats, injected with 5 mg/kg, observed over a 24 hour period. The protocol:
Six rats were utilized to test the LHRH antagonist peptide of Example 1 of the present invention for anaphylactoid properties. Each of the six rats was injected with 5 mg/kg of the test peptide.

On to Antide [reference compound], for which, in the data set with plasma testosterone, the “plasma testosterone, 0 hr” value amounted to 3.35 ± 2.51. Besides, in the data set on plasma testosterone (24 hr), the “plasma testosterone, 24 hr” value came out at 0.78 ± 0.37. For the same substance, the “plasma testosterone, 48 hr” value in the data set on plasma testosterone (48 hr) was 1.96 ± 0.95.
Turning to “Example 2: LHRH antagonist peptide SEQ ID NO.: 2: as SEQ ID NO.: 1 at positions 1, 2, 3, 6, 8; position 9 is Pro-NHCH2 CH3 (Ac-[d2Nal][dPhe(4-Cl)][d3Pal]SY[dK](Carbamoyl)LK(iPr)P-NHEt; SMILES CCNC(=O)[C@@H]1CCCN1C(=O)[C@H](CCCCNC(C)C)NC(=O)[C@H](CC(C)C)NC(=O)[C@@H](CCCCNC(N)=O)NC(=O)[C@H](Cc1ccc(O)cc1)NC(=O)[C@H](CO)NC(=O)[C@@H](Cc1cccnc1)NC(=O)[C@@H](Cc1ccc(Cl)cc1)NC(=O)[C@@H](Cc1ccc2ccccc2c1)NC(C)=O)”, in data set [1], the solubility in water entry is on record as “water soluble”.
Regarding “Example 1: LHRH antagonist peptide SEQ ID NO.: 1: N-acetyl-D-3-(2-naphthyl)-Ala1, D-3-(4-chlorophenyl)-alanine2, D-3(3-pyridyl)-Ala3, D-6-carbamoyl lysine6, Nε-isopropyl-Lys8, D-Ala-NH2 at 10 (Ac-[d2Nal][dPhe(4-Cl)][d3Pal]SY[dK](Carbamoyl)LK(iPr)P[dA]-NH2)”, the solubility in water result in data set [1] is listed as “freely soluble in water”. In addition, in the data set on rats, the “mortality or other signs of anaphylactoid reactions” value is recorded as “No mortality or other signs of anaphylactoid reactions were observed”. Also, the “plasma testosterone, 0 hr” value with plasma testosterone was 5.46 ± 3.32. In addition, in the data set with plasma testosterone (24 hr), the “effectiveness relative to Antide at 24 hour suppression of plasma testosterone” value is reported as “more than about ten times as effective as Antide” and the “plasma testosterone, 24 hr” value was found to be 0.067 ± 0.030. In the data set with plasma testosterone (48 hr), the “effectiveness relative to Antide at 48 hours, suppression of plasma testosterone” value is recorded as “more than twice as effective as Antide” and the “plasma testosterone, 48 hr” value was 0.84 ± 0.28.
